According to ChEMBL document CHEMBL3860067, “Investigation of the structure activity relationship of flufenamic acid derivatives at the human TRESK channel K2P18.1” (Bioorg Med Chem Lett, 2016):
Activity calls are given as the source filed them. No cut-off for these calls is given here.

Legend:
[1] = target: T1, Potassium channel subfamily K member 18 (Homo sapiens, UniProt Q7Z418); assay: Channel blocking activity at human TRESK channel expressed in HEK293 cells at 100 uM by whole cell patch clamp assay; assay type: cell-based; settings: hek293, 100 µM
T1 sequence (Q7Z418 whole entry): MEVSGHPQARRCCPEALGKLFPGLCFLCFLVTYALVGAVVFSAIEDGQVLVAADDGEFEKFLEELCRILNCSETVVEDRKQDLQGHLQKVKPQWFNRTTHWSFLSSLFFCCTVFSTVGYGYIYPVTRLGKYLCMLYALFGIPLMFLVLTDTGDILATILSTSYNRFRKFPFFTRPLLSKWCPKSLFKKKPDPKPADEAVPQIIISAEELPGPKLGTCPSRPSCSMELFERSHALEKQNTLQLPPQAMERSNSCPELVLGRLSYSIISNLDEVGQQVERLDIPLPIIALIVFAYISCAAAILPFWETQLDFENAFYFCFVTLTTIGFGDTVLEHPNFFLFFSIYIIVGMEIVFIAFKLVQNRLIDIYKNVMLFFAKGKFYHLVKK

[2] = Lipophilicity, log D of the compound; assay type: physicochemical; settings: octanol/water
[3] = target: T1, Potassium channel subfamily K member 18; assay: (§1) Activation of human TRESK channel expressed in HEK293 cells assessed as induction of channel current by whole cell patch clamp assay; assay type: cell-based
[4] = target: T2, Potassium channel subfamily K member 18 (Homo sapiens) (UniProt Q7Z418); assay: as §1; assay type: cell-based
T2 sequence (whole entry): T1 sequence (Q7Z418 whole entry)

[5] = target: T1, Potassium channel subfamily K member 18; assay: (§2) Activation of human TRESK channel relative to control
[6] = target: T2, Potassium channel subfamily K member 18 (Homo sapiens); assay: as §2
[7] = target: T2, Potassium channel subfamily K member 18 (Homo sapiens); assay: Activation of human TRESK channel expressed in HEK293 cells assessed as induction of channel current at 100 uM by whole cell patch clamp assay relative to control; assay type: cell-based
[8] = target: T1, Potassium channel subfamily K member 18; assay: Channel blocking activity at human TRESK channel

NC(=O)c1ccccc1Nc1cccc(C(F)(F)F)c1
Activity [1]: Active

CC(C)(C)c1cccc(Nc2ccccc2C(=O)O)c1
logD [2]: 3.2
EC50 [3]: 45 µM
Emax [4]: 354%

Cc1cc(C)c(Nc2ccccc2C(=O)O)c(C)c1
Activity [1]: Active

O=C(O)c1ccccc1Nc1cccc(-c2ccccc2)c1
Activity [1]: Active

N#Cc1ccccc1Nc1cccc(C(F)(F)F)c1
Activity [1]: Active

c1ccc(-c2nnn[nH]2)c(Nc2cccc3c2CCCC3)c1
EC50 [5]: 6 µM
Emax [6]: 75%

FC(F)(F)c1cccc(Nc2ccccc2-c2nnn[nH]2)c1
Activity [1]: Active

CCCCc1cccc(Nc2ccccc2C(=O)O)c1
Activity [7]: Active

O=C(O)c1ccccc1Nc1cccc(Oc2ccccc2)c1
Activity [1]: Active

O=C(O)c1ccccc1Nc1cccc(C(F)(F)F)c1 [FLUFENAMIC ACID]
EC50 [5]: > 100 µM
logD [2]: 2.2
EC50 [3]: 474 µM

O=C(O)c1ccccc1Nc1cccc2c1CCCC2
Activity [1]: Active

CC(C)(C)c1cccc(Nc2ccccc2-c2nnn[nH]2)c1
logD [2]: 2.7
EC50 [3]: 18.8 µM
Emax [4]: 102%

CCN(CC)CC(=O)Nc1c(C)cccc1C [LIDOCAINE]
IC50 [8]: > 100 µM
